Results on 2 compounds are retold here after ChEMBL document CHEMBL1153880, “Synthesis and adrenolytic activity of 1-(1H-indol-4-yloxy)-3-{[2-(2-methoxyphenoxy)ethyl]amino}propan-2-ol and its enantiomers. Part 1” (Eur J Med Chem, 2009).

Data set [1] deals with Rattus norvegicus. Briefly: Antiarrhythmic activity against adrenaline-induced arrhythmia in iv dosed anaesthetized Wistar rat assessed as inhibition of premature ventricular beats pretreated 60 mins prior to adrenaline challenge. It is filed as functional. Particulars: Heart.
The nature of data set [2]: Acute toxicity in iv dosed anaesthetized Wistar rat. It counts as organism-based. Particulars: in vivo.
A short description of data set [3]: Therapeutic index, ratio of LD50 for Wistar rat to antiarrhythmic ED50 for Wistar rat. It counts as organism-based, Heart. As to conditions: in vivo, read-out: TI.
Data set [4] concerns Rattus norvegicus. Briefly: Effect on heart rate in anaesthetized Wistar rat assessed as number of beats per minute at 1 mg/kg, iv after 1 min by electrocardiography. It is filed as functional.
Data set [5] deals with Rattus norvegicus. Briefly: Effect on electrocardiogram in anaesthetized Wistar rat assessed as change in P-Q interval at 1 mg/kg, iv after 1 min by electrocardiography. It counts as functional.
For data set [6], the system named is Rattus norvegicus. Nature of the data set: Effect on heart rate in anaesthetized Wistar rat assessed as number of beats per minute at 1 mg/kg, iv after 5 mins by electrocardiography. It counts as functional.

A word on the ED50: it is the midpoint of the dose-response relation. In general, LD50 refers to the dose at which mortality reaches 50%. A lower LD50 goes with a more toxic substance. Take `CC(C)NCC(O)COc1cccc2[nH]ccc12` (stereo not drawn) [PINDOLOL]: in the data set on Rattus norvegicus [1], the ED50 amounted to 1.05 mg/kg. For the same compound, the 50% lethal dose (LD50) in data set [2] turned out to be 39 mg/kg. The selectivity ratio in data set [3] was found to be 37.

Regarding `COc1ccccc1OCCNCC(O)COc1cccc2[nH]c3ccccc3c12` (stereo not drawn) [CARVEDILOL], the Activity worked out at 345.2 min⁻¹ in the data set with Rattus norvegicus [4], 50 ms in the data set on Rattus norvegicus [5] and 340.3 min⁻¹ with Rattus norvegicus [6]. Besides, the ED50 with Rattus norvegicus [1] was found to be 0.25 mg/kg. The LD50 in data set [2] was 25 mg/kg.
